In ChEMBL document CHEMBL4118122, “Identification and biological evaluation of thiazole-based inverse agonists of RORγt” (Bioorg Med Chem Lett, 2018):

Legend:
[1] = target: Delta-type opioid receptor (Homo sapiens, UniProt P41143); test: Displacement of [3H]DADLE from human recombinant delta opioid receptor after 60 mins by scintillation counting analysis
[2] = target: cAMP-dependent protein kinase catalytic subunit alpha (Homo sapiens) (UniProt P17612); test: Inhibition of recombinant human His-tagged PRKACA expressed in Escherichia coli at 10 uM in presence of ATP relative to control
[3] = target: Calcium/calmodulin-dependent protein kinase type II subunit beta (Homo sapiens) (UniProt Q13554); test: Inhibition of recombinant full length His-tagged human CaMK2beta expressed in baculovirus expression system at 10 uM in presence of ATP relative to control
Chain of Calcium/calmodulin-dependent protein kinase type II subunit beta (Homo sapiens) (Q13554 whole entry): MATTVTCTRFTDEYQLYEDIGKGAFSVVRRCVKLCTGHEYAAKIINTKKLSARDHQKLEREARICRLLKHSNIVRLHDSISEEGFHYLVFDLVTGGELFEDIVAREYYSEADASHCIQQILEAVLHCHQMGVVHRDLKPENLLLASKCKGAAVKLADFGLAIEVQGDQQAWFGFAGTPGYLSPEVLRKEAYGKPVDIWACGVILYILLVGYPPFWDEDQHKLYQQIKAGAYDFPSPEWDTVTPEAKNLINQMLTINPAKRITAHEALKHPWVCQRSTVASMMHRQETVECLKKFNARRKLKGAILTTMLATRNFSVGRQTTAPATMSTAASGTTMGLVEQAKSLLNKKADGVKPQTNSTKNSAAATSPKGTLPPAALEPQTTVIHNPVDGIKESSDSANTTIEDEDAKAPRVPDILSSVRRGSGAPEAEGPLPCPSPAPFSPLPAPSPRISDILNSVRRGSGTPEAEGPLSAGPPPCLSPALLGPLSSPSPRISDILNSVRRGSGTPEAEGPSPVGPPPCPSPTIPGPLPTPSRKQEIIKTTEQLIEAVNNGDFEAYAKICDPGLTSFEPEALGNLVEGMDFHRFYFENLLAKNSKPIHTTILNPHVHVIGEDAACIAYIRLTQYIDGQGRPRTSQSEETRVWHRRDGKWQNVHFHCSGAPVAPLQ

[4] = target: 5-hydroxytryptamine receptor 2A (Homo sapiens, UniProt P28223); test: Displacement of [3H]ketanserin human recombinant 5-HT2A receptor at 10 uM after 60 mins by scintillation counting analysis relative to control
Chain of 5-hydroxytryptamine receptor 2A (P28223 whole entry): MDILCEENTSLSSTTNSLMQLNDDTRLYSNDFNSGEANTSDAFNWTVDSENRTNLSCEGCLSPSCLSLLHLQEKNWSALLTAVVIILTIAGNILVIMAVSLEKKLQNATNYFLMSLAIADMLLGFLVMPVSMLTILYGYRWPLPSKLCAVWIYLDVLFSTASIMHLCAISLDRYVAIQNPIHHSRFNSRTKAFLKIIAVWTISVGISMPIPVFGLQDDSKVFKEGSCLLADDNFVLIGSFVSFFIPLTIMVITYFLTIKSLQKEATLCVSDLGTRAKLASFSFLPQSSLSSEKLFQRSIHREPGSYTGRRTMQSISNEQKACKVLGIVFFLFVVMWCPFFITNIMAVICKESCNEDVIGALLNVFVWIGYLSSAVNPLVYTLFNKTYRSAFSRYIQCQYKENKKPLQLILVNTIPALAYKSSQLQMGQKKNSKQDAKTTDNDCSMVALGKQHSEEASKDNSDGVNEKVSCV

[5] = target: Mitogen-activated protein kinase 13 (Homo sapiens) (UniProt O15264); test: Inhibition of recombinant full length His-tagged human p38delta expressed in baculovirus expression system at 10 uM in presence of ATP relative to control
Chain of Mitogen-activated protein kinase 13 (Homo sapiens) (O15264 whole entry): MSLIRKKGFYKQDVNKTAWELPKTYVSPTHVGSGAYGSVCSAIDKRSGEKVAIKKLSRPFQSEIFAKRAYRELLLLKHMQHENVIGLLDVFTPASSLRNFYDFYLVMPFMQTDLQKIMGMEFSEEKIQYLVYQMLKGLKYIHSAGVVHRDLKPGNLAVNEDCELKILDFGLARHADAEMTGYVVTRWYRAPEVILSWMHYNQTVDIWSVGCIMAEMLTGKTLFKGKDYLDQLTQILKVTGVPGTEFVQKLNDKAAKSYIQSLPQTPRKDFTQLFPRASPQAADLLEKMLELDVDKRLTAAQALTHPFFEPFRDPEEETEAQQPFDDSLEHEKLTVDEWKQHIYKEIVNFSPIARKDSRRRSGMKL

[6] = target: Sodium-dependent dopamine transporter (Homo sapiens) (UniProt Q01959); test: Displacement of [3H][…] from recombinant human dopamine transporter at 1 uM after 120 mins by scintillation counting analysis relative to control
Chain of Sodium-dependent dopamine transporter (Homo sapiens) (Q01959 whole entry): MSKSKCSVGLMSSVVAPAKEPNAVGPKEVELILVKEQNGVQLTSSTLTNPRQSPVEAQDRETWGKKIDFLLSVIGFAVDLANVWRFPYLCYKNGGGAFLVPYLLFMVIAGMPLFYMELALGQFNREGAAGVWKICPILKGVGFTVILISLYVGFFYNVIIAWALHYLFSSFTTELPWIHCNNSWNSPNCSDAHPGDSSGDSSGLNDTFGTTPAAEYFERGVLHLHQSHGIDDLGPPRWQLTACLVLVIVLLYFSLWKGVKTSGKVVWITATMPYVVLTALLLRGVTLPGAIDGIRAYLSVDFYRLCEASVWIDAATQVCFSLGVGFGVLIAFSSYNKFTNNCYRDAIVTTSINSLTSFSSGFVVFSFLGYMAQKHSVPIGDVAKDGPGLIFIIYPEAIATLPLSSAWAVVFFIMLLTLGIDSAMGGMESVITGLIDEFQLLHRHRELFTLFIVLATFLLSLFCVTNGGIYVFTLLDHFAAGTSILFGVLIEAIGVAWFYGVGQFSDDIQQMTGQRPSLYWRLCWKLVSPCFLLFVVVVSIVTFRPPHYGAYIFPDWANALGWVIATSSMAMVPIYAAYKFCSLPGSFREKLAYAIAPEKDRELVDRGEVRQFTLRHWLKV

[7] = AUC (0 to infinity) in Sprague-Dawley rat at 1 mg/kg, iv; type: ADME, organism-based; design: dose 1 mg/kg, time infinity, route intravenous; settings: in vivo
[8] = target: Protein kinase C beta type (Homo sapiens) (UniProt P05771); test: Inhibition of PKCbeta1 (unknown origin) at 10 uM in presence of ATP relative to control
Chain of Protein kinase C beta type (Homo sapiens) (P05771 2-671 limits assumed): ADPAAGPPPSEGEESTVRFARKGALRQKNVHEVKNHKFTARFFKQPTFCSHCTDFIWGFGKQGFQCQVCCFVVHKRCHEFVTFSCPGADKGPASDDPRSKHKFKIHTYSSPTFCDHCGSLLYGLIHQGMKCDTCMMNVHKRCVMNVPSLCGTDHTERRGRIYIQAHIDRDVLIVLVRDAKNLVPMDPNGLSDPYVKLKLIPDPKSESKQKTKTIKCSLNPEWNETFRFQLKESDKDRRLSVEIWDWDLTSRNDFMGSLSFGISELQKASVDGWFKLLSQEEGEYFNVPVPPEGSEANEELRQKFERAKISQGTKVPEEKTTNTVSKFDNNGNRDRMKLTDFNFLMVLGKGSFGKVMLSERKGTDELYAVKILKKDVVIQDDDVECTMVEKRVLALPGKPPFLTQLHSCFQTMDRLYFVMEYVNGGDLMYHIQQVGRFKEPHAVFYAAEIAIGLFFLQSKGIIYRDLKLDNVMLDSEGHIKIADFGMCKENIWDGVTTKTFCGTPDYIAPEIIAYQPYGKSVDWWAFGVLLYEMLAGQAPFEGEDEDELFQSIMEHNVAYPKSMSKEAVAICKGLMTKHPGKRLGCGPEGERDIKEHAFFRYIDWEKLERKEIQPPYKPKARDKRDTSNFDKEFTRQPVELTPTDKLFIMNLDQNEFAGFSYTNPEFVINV

[9] = target: Activin receptor type-1B (Homo sapiens) (UniProt P36896); test: Inhibition of recombinant GST-tagged human ACVR1B catalytic domain (150 to 505 residues) expressed in baculovirus expression system at 10 uM in presence of ATP relative to control
Chain of Activin receptor type-1B (Homo sapiens) (P36896 whole entry, the tested form may be a part): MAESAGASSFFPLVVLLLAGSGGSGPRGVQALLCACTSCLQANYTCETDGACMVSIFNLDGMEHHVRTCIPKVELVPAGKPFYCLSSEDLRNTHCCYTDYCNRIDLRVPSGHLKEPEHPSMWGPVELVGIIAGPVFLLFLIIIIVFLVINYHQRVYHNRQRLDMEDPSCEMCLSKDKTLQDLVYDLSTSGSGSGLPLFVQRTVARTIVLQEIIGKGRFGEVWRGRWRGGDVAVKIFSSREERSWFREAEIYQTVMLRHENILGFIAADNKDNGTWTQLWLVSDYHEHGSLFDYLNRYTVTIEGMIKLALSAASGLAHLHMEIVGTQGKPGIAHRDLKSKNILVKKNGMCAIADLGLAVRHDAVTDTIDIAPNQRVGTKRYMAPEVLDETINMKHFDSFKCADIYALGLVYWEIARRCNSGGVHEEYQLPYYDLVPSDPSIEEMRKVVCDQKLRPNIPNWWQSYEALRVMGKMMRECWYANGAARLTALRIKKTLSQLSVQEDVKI

Chain of Delta-type opioid receptor (P41143 whole entry): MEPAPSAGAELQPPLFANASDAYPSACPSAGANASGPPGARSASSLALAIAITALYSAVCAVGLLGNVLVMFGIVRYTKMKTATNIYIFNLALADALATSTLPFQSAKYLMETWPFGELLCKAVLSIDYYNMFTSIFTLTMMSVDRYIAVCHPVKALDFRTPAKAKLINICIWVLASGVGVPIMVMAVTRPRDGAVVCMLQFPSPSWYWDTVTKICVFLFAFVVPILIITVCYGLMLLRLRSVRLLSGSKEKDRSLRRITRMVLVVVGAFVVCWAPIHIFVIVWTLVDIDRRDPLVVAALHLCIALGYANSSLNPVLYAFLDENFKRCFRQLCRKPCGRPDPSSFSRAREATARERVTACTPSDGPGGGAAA

SMILES: CC(C)(C)NS(=O)(=O)c1ccc(-c2sc(C(=O)N[C@H]3C[C@H](C(=O)O)C3)nc2CC2CCCCC2)c2ccccc12
- IC50 [1]: 6 nM
- inhibition [2]: -4%
- inhibition [3]: 6%
- inhibition [4]: < 10%
- inhibition [5]: -4%
- inhibition [6]: 18%
- AUC(0-inf) [7]: 325 ng·h/mL
- inhibition [8]: -2%
- inhibition [9]: -2%
